Where “and” joins values, the source holds several entries; their conditions need not be identical. Identical values can stand only once. Inconclusive results and toxic doses are left out. Cut-off read from the data, not from the text of the source: active = T/C of 150% or more; inactive = T/C below 125%.
Tested on: L1210 leukemia ip in BDF1 mice, survival T/C
Test: NCI In Vivo Anticancer Drug Screen. Data for tumor model L1210 Leukemia (intraperitoneal) in B6D2F1 (BDF1) mice
Conditions: endpoint: mean survival time, higher = longer survival
Procedure, shortened: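 Each compound was tested against a transplantable tumor grown in mice. The endpoint was survival, with treated animals benchmarked against vehicle controls as a simple ratio.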

[1] = dose: 100.0 mg/kg/injection, schedule: Q01DX009 (ip), vehicle: Klucel (hydroxypropylcellulose) (HPC)
[2] = dose: 200.0 mg/kg/injection, schedule: Q01DX009 (ip), vehicle: Klucel (hydroxypropylcellulose) (HPC)
[3] = dose: 400.0 mg/kg/injection, schedule: Q01DX009 (ip), vehicle: Klucel (hydroxypropylcellulose) (HPC)
[4] = dose: 100.0 mg/kg/injection, schedule: Q04DX002 (ip), vehicle: Klucel (hydroxypropylcellulose) (HPC)
[5] = dose: 200.0 mg/kg/injection, schedule: Q04DX002 (ip), vehicle: Klucel (hydroxypropylcellulose) (HPC)
[6] = dose: 400.0 mg/kg/injection, schedule: Q04DX002 (ip), vehicle: Klucel (hydroxypropylcellulose) (HPC)
[7] = dose: 150.0 mg/kg/injection, schedule: Q01DX001 (ip), vehicle: saline
[8] = dose: 100.0 mg/kg/injection, schedule: Q04DX003 (ip), vehicle: saline with Tween-80
[9] = dose: 200.0 mg/kg/injection, schedule: Q04DX003 (ip), vehicle: saline with Tween-80
[10] = dose: 400.0 mg/kg/injection, schedule: Q04DX003 (ip), vehicle: saline with Tween-80

Measured: T/C

COc1cc(/C=N/N=C(\C)c2ccc3ccccc3c2)cc(OC)c1OC
inactive: [1] 90 % of control | [2] 94 % of control | [3] 100 % of control

BrC=C=C1CCCCC1
inactive: dose: 100.0 mg/kg/injection, schedule: Q01DX009 (ip), vehicle: saline 98 % of control | dose: 200.0 mg/kg/injection, schedule: Q01DX009 (ip), vehicle: saline 93 % of control | dose: 400.0 mg/kg/injection, schedule: Q01DX009 (ip), vehicle: saline 95 % of control

COc1cc2c(cc1OC)C13CCN4CC5=CCOC6CC(=O)N2C1C6C5CC43 (stereo unspecified)
inactive: dose: 9.5 mg/kg/injection, schedule: Q01DX001 (ip), vehicle: other 103 % of control | dose: 19.0 mg/kg/injection, schedule: Q01DX001 (ip), vehicle: other 103 % of control | dose: 25.0 mg/kg/injection, schedule: Q01DX015 (ip), vehicle: saline 101 % of control | dose: 38.0 mg/kg/injection, schedule: Q01DX001 (ip), vehicle: other 97 % of control | dose: 50.0 mg/kg/injection, schedule: Q01DX015 (ip), vehicle: saline 100 % of control | dose: 100.0 mg/kg/injection, schedule: Q01DX015 (ip), vehicle: saline 91 % of control

CCNC1(c2cccs2)CCCCC1=O (stereo unspecified)
inactive: dose: 20.0 mg/kg/injection, schedule: Q04DX003 (ip), vehicle: saline 102 % of control | dose: 40.0 mg/kg/injection, schedule: Q04DX003 (ip), vehicle: saline 104 % of control | dose: 80.0 mg/kg/injection, schedule: Q04DX003 (ip), vehicle: saline 102 % of control

CC1(C)CC(=O)CC(C)(CN)C1 (stereo unspecified)
inactive: dose: 100.0 mg/kg/injection, schedule: Q04DX003 (ip), vehicle: Klucel (hydroxypropylcellulose) (HPC) 100 % of control | dose: 200.0 mg/kg/injection, schedule: Q04DX003 (ip), vehicle: Klucel (hydroxypropylcellulose) (HPC) 104 % of control | dose: 400.0 mg/kg/injection, schedule: Q04DX003 (ip), vehicle: Klucel (hydroxypropylcellulose) (HPC) 100 % of control

CC1(C)C=CN(c2ccccc2)C(=O)O1
inactive: [4] 94 % of control | [5] 98 % of control | [6] 98 % of control

O=c1[nH]cnc2c1c(Br)cn2C1OC(CO)C(O)C1O (stereo unspecified)
inactive: dose: 100.0 mg/kg/injection, schedule: Q01DX001 (ip), vehicle: carboxymethylcellulose (CMC) 110 % of control | dose: 200.0 mg/kg/injection, schedule: Q01DX001 (ip), vehicle: carboxymethylcellulose (CMC) 112 % of control | dose: 400.0 mg/kg/injection, schedule: Q01DX001 (ip), vehicle: carboxymethylcellulose (CMC) 121 % of control

NC(CSSc1ccccc1)=NC1CCCCC1
inactive: dose: 12.5 mg/kg/injection, schedule: Q04DX002 (ip), vehicle: other 98 % of control | dose: 25.0 mg/kg/injection, schedule: Q04DX002 (ip), vehicle: other 109 % of control | dose: 50.0 mg/kg/injection, schedule: Q04DX002 (ip), vehicle: other 91 % of control

C=CC[n+]1cccc(S(=O)(=O)[O-])c1
inactive: dose: 100.0 mg/kg/injection, schedule: Q04DX003 (ip), vehicle: saline 101 % of control | dose: 200.0 mg/kg/injection, schedule: Q04DX003 (ip), vehicle: saline 98 % of control | dose: 400.0 mg/kg/injection, schedule: Q04DX003 (ip), vehicle: saline 103 % of control

S=P(NC1CCCCC1)(N1CC1)N1CC1
inactive: dose: 5.0 mg/kg/injection, schedule: Q01DX Z (ip), vehicle: carboxymethylcellulose (CMC) 122 % of control | dose: 20.0 mg/kg/injection, schedule: Q01DX Z (ip), vehicle: carboxymethylcellulose (CMC) 101 % of control

COC1C(O)=C2C(=O)OC(C)(O)/C=C/C=C\C=C/C=C/C(c3ccccc3)NC(=O)/C=C/C=C/C=C/C=C/C2(C)C1O (stereo unspecified)
inactive: dose: 2.5 mg/kg/injection, schedule: Q01DX009 (ip), vehicle: saline 94 % of control | dose: 5.0 mg/kg/injection, schedule: Q01DX009 (ip), vehicle: saline 100 % of control | dose: 10.0 mg/kg/injection, schedule: Q01DX009 (ip), vehicle: saline 95 % of control

CCCCCCCCCCCCCCCCCSc1ccc2ccccc2c1
inactive: [1] 97 % of control | [2] 100 % of control | [3] 95 % of control

O=C1C2CCCCC1C(N1CCCC1)CC2 (stereo unspecified)
inactive: dose: 100.0 mg/kg/injection, schedule: Q01DX009 (sc), vehicle: olive oil, sesame oil, peanut oil 98 % of control | dose: 100.0 mg/kg/injection, schedule: Q04DX003 (sc), vehicle: olive oil, sesame oil, peanut oil 96 % of control | dose: 200.0 mg/kg/injection, schedule: Q01DX009 (sc), vehicle: olive oil, sesame oil, peanut oil 104 % of control | dose: 200.0 mg/kg/injection, schedule: Q04DX003 (sc), vehicle: olive oil, sesame oil, peanut oil 100 % of control | dose: 400.0 mg/kg/injection, schedule: Q04DX003 (sc), vehicle: olive oil, sesame oil, peanut oil 111 % of control

N#CCc1c[nH]c2ccc(OCc3ccccc3)cc12
inactive: dose: 50.0 mg/kg/injection, schedule: Q01DX009 (ip), vehicle: other 100 % of control | dose: 100.0 mg/kg/injection, schedule: Q01DX009 (ip), vehicle: other 94 % of control | dose: 200.0 mg/kg/injection, schedule: Q01DX009 (ip), vehicle: other 108 % of control

Nc1ncnc2nn(C3OC(CO)C(O)C3O)nc12 (stereo unspecified)
inactive: dose: 75.0 mg/kg/injection, schedule: Q01DX001 (ip), vehicle: saline 105 % of control | [7] 105 % of control | dose: 300.0 mg/kg/injection, schedule: Q01DX001 (ip), vehicle: saline 108 % of control

Cc1ccc(Cl)cc1NC(=O)Nc1cccc(C(F)(F)F)c1
inactive: dose: 50.0 mg/kg/injection, schedule: Q01DX009 (ip), vehicle: saline with Tween-80 97 % of control and 90 % of control | dose: 100.0 mg/kg/injection, schedule: Q04DX002 (ip), vehicle: saline with Tween-80 102 % of control and 88 % of control | [8] 101 % of control | dose: 200.0 mg/kg/injection, schedule: Q04DX002 (ip), vehicle: saline with Tween-80 98 % of control and 90 % of control | [9] 96 % of control | dose: 400.0 mg/kg/injection, schedule: Q01DX009 (ip), vehicle: saline with Tween-80 105 % of control and 90 % of control | dose: 400.0 mg/kg/injection, schedule: Q04DX002 (ip), vehicle: saline with Tween-80 104 % of control and 91 % of control | [10] 91 % of control

NOC(=O)C(O)(c1ccccc1)C1CCCCC1 (stereo unspecified)
inactive: dose: 75.0 mg/kg/injection, schedule: Q01DX001 (ip), vehicle: other 104 % of control | dose: 150.0 mg/kg/injection, schedule: Q01DX001 (ip), vehicle: other 98 % of control | dose: 300.0 mg/kg/injection, schedule: Q01DX001 (ip), vehicle: other 98 % of control

C=CCCC1(CCC(C)C)C(=O)NC(=O)NC1=O
inactive: [7] 116 % of control

COc1c(CO)cc(C)cc1CO
inactive: dose: 87.5 mg/kg/injection, schedule: Q04DX003 (ip), vehicle: saline with Tween-80 101 % of control | dose: 175.0 mg/kg/injection, schedule: Q04DX003 (ip), vehicle: saline with Tween-80 124 % of control | dose: 350.0 mg/kg/injection, schedule: Q04DX003 (ip), vehicle: saline with Tween-80 101 % of control

c1ccc(-c2cc3c(nn2)[nH]c2ccccc23)cc1
inactive: [4] 105 % of control | [5] 97 % of control | [6] 87 % of control

O=C(Nc1ccccc1)SCCSC(=O)Nc1ccccc1
inactive: dose: 100.0 mg/kg/injection, schedule: Q01DX001 (ip), vehicle: saline with Tween-80 88 % of control | [8] 97 % of control | dose: 200.0 mg/kg/injection, schedule: Q01DX001 (ip), vehicle: saline with Tween-80 88 % of control | [9] 88 % of control | dose: 400.0 mg/kg/injection, schedule: Q01DX001 (ip), vehicle: saline with Tween-80 90 % of control | [10] 87 % of control

O=C(Nc1ccccc1Cl)Oc1ccccc1-c1ccccc1
inactive: [4] 106 % of control | [5] 113 % of control | [6] 120 % of control
